Earlier results on two molecules are cited in patent publication US8324185B2, “Composition for the treatment of obesity and hyperlipidemia” (Nucitec, S.A. DF C.V., priority 2004, dated 2012).

The target of one data set is T1, pancreatic lipase (Homo sapiens, UniProt P16233).
T1 sequence (P16233 17-465): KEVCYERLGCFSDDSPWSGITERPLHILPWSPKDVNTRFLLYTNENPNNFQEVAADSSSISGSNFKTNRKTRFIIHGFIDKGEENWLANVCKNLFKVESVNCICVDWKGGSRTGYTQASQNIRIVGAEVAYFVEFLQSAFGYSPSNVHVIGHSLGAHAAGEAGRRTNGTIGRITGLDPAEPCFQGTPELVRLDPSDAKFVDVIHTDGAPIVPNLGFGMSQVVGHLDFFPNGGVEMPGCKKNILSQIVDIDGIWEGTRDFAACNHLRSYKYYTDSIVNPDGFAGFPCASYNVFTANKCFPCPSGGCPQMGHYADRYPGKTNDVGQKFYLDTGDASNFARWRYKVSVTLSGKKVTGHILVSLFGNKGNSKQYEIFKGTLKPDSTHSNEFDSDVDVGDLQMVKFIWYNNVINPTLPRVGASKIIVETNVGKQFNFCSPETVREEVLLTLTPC
As to conditions: in vitro.

The conditions of data set [1]: dietary fat.

With `CCCCCCCCCCC[C@@H](C[C@@H]1OC(=O)[C@H]1CCCCCC)OC(=O)[C@H](CC(C)C)NC=O` [orlistat], on pancreatic lipase, the “inhibition of pancreatic lipase activity” value is given as “fully inhibits”. Further, the “reduction in fat absorption from the diet” value in data set [1] was 30%. Consider `NCCCC[C@H](N)C(=O)O` [lisine], for which the “pK value of the amino group” value is on record as ~9.
